The values below come from patent US7666835B2 (Imperial Innovations Limited, priority 2001, dated 2010).

No end group written: not given here.

Assay [1] is described as follows: iPVN injection, food intake in 24-h fasted rats (studies 1b, 2b). The format is in vivo, rat. Particulars: for refeeding (food intake) after iPVN injection: study 1b, OXM, GLP-1 (3 nmol [sic]), exendin-4 0.03 nmol, glicentin, glucagon 1 nmol, SP-1 3 nmol, fasted rats. How it is done: (§1) Animals had permanent stainless steel guide cannulas (Plastics One, Roanoke, Va.) stereotactically implanted ICV or iPVN.
Therefore, exendin-4 was injected iPVN at a dose of 0.03 nmol.

Assay [2] is described as follows: ICV injection, food intake in 24-h fasted rats (studies 1a, 2a). The format is in vivo, rat. Particulars: study 1a, 3 nmol ICV; for refeeding (food intake) after ICV injection: 24-h fasted rats, vs saline.
Source text: as §1

Assay [3] can be described thus: ICV injection in sated rats at onset of dark phase: food intake and behaviour (study 3). The class given is in vivo, rat. Particulars: study 3a, 3 nmol ICV, early dark phase, vs saline.
Description: Food intake was measured 1 h postinjection (study 3a), and behaviour was assessed (study 3b).
Assay [4] relates to fos-like immunoreactivity. Put plainly: fos-like immunoreactivity (FLI) in hypothalamus and brainstem after IP injection. The class given is in vivo, rat. Particulars: IP OXM 50 nmol/kg or CCK 15 nmol/kg; 90 minutes after injection.
Source text: The brains were removed and post-fixed overnight in PBF and then transferred to PB-sucrose (20% w/v) overnight. 40 μm coronal sections of brain and brainstem were cut on a freezing microtome and stained for fos-like immunoreactivity (FLI) by the avitin-biotin-peroxidase method. The sections were then mounted on poly-L-lysine-coated slides, dehydrated in increasing concentrations of ethanol (50-100%), delipidated in xylene and coverslipped using DPX mountant. Slides were examined for FLI-positive nuclei using a light microscope (Nikon Eclipse E-800) and images captured using a microimager (Xillix MicroImager). The numbers of FLI-positive nuclei in the hypothalamus and brainstem were counted by an independent member of the research team who was blinded to the experimental groups. The average number of FLI-positive nuclei per section was calculated and expressed as an integer for each animal.
For assay [5], the target named is T1, GLP-1 receptor (Rattus norvegicus, UniProt P32301).
T1 construct: from tissue; host or cells: rat hypothalamus (membrane preparation)
T1 sequence (P32301 22-463): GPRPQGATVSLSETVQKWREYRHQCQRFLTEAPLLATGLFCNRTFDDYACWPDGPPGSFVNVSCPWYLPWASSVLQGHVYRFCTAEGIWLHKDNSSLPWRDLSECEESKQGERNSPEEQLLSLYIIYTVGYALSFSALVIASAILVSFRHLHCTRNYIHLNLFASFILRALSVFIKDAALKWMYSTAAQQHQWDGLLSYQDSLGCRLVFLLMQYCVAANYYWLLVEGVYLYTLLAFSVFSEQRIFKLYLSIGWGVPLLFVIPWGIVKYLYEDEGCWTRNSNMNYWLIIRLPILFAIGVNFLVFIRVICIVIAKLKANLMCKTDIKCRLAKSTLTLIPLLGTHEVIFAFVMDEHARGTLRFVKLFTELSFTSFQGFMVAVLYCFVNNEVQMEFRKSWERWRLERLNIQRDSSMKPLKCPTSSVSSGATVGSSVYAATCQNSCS
Put plainly: ICV coadministration of exendin-(9-39) with GLP-1 or OXM, food intake (study 4a). The format is in vivo. Particulars: 1 h food intake. How it is done: (§2) Animals had permanent stainless steel guide cannulas (Plastics One, Roanoke, Va.) stereotactically implanted ICV or iPVN. All studies were carried out in the early light phase, between 0900-1100 h, after a 24-h fast, and food intake was measured 1, 2, 4, 8, and 24 h postinjection.

In assay [6] the target is T1, GLP-1 receptor. Put plainly: iPVN coinjection of exendin-(9-39) with GLP-1 or OXM, food intake (study 4b). The class given is in vivo. How it is done: as §2
Assay [7] addresses T2, arcuate nucleus GLP-1 receptors (Rattus norvegicus, UniProt P32301).
T2 construct: 24-hour fasted rats received an iARC injection of saline or exendin9-39 (5 nmoles); from tissue; host or cells: living rat, hypothalamic arcuate nucleus
T2 sequence (P32301 22-463): T1 sequence (P32301 22-463)
Put plainly: iARC exendin 9-39 prior to IP OXM or GLP-1, 1 hour food intake. The class given is in vivo. An excerpt: Rats cannulated into the arcuate nucleus were randomised into 6 groups (n=10-12 per group). […] The injection details are described in Table 1 below.

Regarding `CC[C@H](C)[C@H](NC(=O)[C@H](Cc1ccccc1)NC(=O)[C@H](CCC(=O)O)NC(=O)[C@H](CCCCN)NC(=O)[C@H](C)NC(=O)[C@H](C)NC(=O)[C@H](CCC(N)=O)NC(=O)CNC(=O)[C@H](CCC(=O)O)NC(=O)[C@H](CC(C)C)NC(=O)[C@H](Cc1ccc(O)cc1)NC(=O)[C@H](CO)NC(=O)[C@H](CO)NC(=O)[C@@H](NC(=O)[C@H](CC(=O)O)NC(=O)[C@H](CO)NC(=O)[C@@H](NC(=O)[C@H](Cc1ccccc1)NC(=O)[C@@H](NC(=O)CNC(=O)[C@H](CCC(=O)O)NC(=O)[C@H](C)NC(=O)[C@@H](N)Cc1c[nH]cn1)[C@@H](C)O)[C@@H](C)O)C(C)C)C(=O)N[C@@H](C)C(=O)N[C@@H](Cc1c[nH]c2ccccc12)C(=O)N[C@@H](CC(C)C)C(=O)N[C@H](C(=O)N[C@@H](CCCCN)C(=O)NCC(=O)N[C@@H](CCCNC(=N)N)C(N)=O)C(C)C` [GLP-1, glucagon-like peptide-1], the “refeeding (food intake) after iPVN injection” value in assay [1] is reported as “inhibited refeeding”. Moreover, in assay [1] (study 2b, 1 nmol iPVN, until 8 h postinjection), the “food intake after iPVN injection” value is “significantly reduced”. In addition, the “refeeding (food intake) after ICV injection” value in assay [2] is given as “significantly reduced refeeding”. Further, the “duration of inhibition of food intake postinjection” value in assay [2] (fasted rats) amounted to 4 h. The “food intake 1 h postinjection” value in assay [3] was “significantly reduced food intake”.

In the case of “CCK-8 (DYMGWMDF; ends and bridges not checked; UniProt P06307 96-103, looked up) [positive control for gastric emptying and brainstem FLI]”, in assay [4], the “FLI / c-fos expression in the brainstem (NTS, area postrema)” value is listed as “dense staining of FLI”.

exendin-4: in assay [1], the “refeeding (food intake) after iPVN injection” value is listed as “inhibited refeeding”.

For the compound exendin-(9-39), the “effect of coadministered exendin-(9-39) on anorectic effect of GLP-1” value with GLP-1 receptor [5] (exendin-(9-39) 30 nmol with GLP-1 3 nmol (10:1)) is on record as “blocked the anorectic effects of GLP-1”. Moreover, the “effect of coadministered exendin-(9-39) on anorectic effect of OXM” value with GLP-1 receptor [5] (exendin-(9-39) 30 nmol with OXM 3 nmol) is on record as “attenuation of the anorectic effect of OXM”. In addition, the “effect of coinjected exendin-(9-39) on anorectic effect of GLP-1” value in the assay with GLP-1 receptor [6] (exendin-(9-39) 10 nmol with GLP-1 1 nmol) is “blocked”. In addition, in the assay with GLP-1 receptor [6] (exendin-(9-39) 10 nmol with OXM 1 nmol), the “effect of coinjected exendin-(9-39) on anorectic effect of OXM” value is recorded as “blocked”. In addition, the “Food intake” value in assay [7] (1 hour, iARC injection / IP injection 15 minutes later, exendin 9-39 5 nmoles, OXM or GLP-1 30 nmol/kg, Saline/saline 9.2) was determined as 9.0 g. In assay [7] (GLP-1 30 nmol/kg IP), the “effect of prior iARC exendin 9-39 on inhibition of food intake by IP GLP-1” value is on record as “not affected”. Further, the “effect of prior iARC exendin 9-39 on anorexia caused by IP OXM” value in assay [7] (exendin 9-39 (300 nmol/kg as printed) into the ARC, OXM 30 nmol/kg IP) is on record as “blocked”.

Turning to glucagon, the “refeeding (food intake) after iPVN injection” value in assay [1] is “failed to affect food intake at any time point”. Further, the “refeeding (food intake) after ICV injection” value in assay [2] was “failed to affect food intake at any time point”.
